From BindingDB's records for doi:10.7270/Q2FQ9V6B (Burnham Center For Chemical Genomics, 2012)
pIC50: −log10 of the molar value.

Target: T1, Tyrosine-protein phosphatase non-receptor type 22 (Homo sapiens, UniProt Q9Y2R2)
T1 sequence (Q9Y2R2 whole entry): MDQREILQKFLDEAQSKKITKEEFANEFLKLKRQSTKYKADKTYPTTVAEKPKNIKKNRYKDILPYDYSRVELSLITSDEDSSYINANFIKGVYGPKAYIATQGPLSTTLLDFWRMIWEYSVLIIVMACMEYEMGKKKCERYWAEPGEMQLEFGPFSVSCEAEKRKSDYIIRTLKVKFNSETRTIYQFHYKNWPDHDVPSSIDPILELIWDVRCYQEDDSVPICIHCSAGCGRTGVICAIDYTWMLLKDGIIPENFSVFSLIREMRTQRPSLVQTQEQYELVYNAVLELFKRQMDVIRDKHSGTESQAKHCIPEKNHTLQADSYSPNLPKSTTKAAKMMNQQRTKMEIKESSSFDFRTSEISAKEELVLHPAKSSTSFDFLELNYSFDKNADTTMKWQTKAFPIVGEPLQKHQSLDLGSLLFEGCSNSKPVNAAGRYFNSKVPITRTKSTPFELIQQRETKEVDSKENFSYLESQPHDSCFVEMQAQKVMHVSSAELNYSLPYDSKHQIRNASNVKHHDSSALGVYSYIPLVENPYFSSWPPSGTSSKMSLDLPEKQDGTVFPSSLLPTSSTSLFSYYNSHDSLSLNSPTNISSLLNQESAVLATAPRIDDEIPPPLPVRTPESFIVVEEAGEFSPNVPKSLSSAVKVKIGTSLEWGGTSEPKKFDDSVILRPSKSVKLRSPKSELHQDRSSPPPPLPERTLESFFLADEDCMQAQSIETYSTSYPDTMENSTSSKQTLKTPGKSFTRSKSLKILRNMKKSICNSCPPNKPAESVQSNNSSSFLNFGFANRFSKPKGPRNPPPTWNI
Test: lymphoid phosphatase LYP inhibitors – biochemical, selectivity assay for STEP inhibitor project, dose response (AID 624241)

Row | Structure (SMILES) | pIC50
1 | O=S(=O)(Nc1ccc(Cl)cc1)c1ccc(N2CCOCC2)c(NC(=S)NCCN2CCOCC2)c1 | < 4.00
2 | O=C(CCc1ccccc1)NNC(=O)c1ccc(NC(=O)c2ccccc2)cc1 | < 4.00
3 | COc1cccc(Nc2nn3c(=O)c4ccccc4nc3s2)c1 | < 4.00
4 | O=C(N/N=C/c1ccncc1)c1cccc(S(=O)(=O)Nc2ccc(Cl)cc2)c1 | < 4.00
5 | Cc1ccc(N=C(S)N(CCN(C)C)Cc2cccs2)c(C)c1 | < 4.00
6 | NC(=O)C1(N2CCCCC2)CCN(C(=S)Nc2ccc(S(N)(=O)=O)cc2)CC1 [1'-({[4-(aminosulfonyl)phenyl]amino}carbonothioyl)-1,4'-bipiperidine-4'-carboxamide] | < 4.00
7 | S=C(NCCc1ccccc1)Nc1c(Cl)cccc1Cl [1-(2,6-dichlorophenyl)-3-(2-phenylethyl)thiourea] | < 4.00
8 | COc1ccc(NC(=S)NCCCN2CCCC2)cc1Cl [1-(3-chloro-4-methoxyphenyl)-3-[3-(1-pyrrolidinyl)propyl]thiourea] | < 4.00
9 | CCCN(CC(=O)Nc1ccccc1OC)C(=O)Cc1ccc2c(c1)CCC2 [2-(2,3-dihydro-1H-inden-5-yl)-N-[2-[(2-methoxyphenyl)amino]-2-oxidanylidene-ethyl]-N-propyl-ethanamide] | < 4.00
10 | CCOc1cc(CN=Nc2nc(O)c(CC(=O)O)s2)ccc1OCc1ccc(Cl)cc1Cl [2-[2-[(N''E)-N''-[4-(2,4-dichlorobenzyl)oxy-3-ethoxy-benzylidene]hydrazino]-4-keto-2-thiazolin-5-yl]acetic acid] | 5.14
11 | Cc1c(CC(=O)O)c(=O)oc2c(C)c(OCc3ccccc3Br)ccc12 [2-[7-[(2-bromophenyl)methoxy]-4,8-dimethyl-2-oxochromen-3-yl]acetic acid] | < 4.00
12 | Cc1ccc(-c2nc(NC(=O)CSc3cc(C)c4ccccc4n3)ns2)cc1 [2-[(4-methyl-2-quinolyl)thio]-N-[5-(p-tolyl)-1,2,4-thiadiazol-3-yl]acetamide] | < 4.00
13 | Cc1c(CCC(=O)O)c(=O)oc2c(C)c(OCc3ccccc3Cl)ccc12 [3-[7-[(2-chlorophenyl)methoxy]-4,8-dimethyl-2-oxochromen-3-yl]propanoic acid] | < 4.00
14 | O=C1Nc2ccc3sc4ccccc4c3c2C1=O [3H-6-Thia-3-aza-cyclopenta[c]fluorene-1,2-dione] | < 4.00
15 | O=C(N/N=C/c1cccc([N+](=O)[O-])c1)c1ccc(Br)cc1 [4-bromo-N-[(E)-(3-nitrophenyl)methylideneamino]benzamide] | < 4.00
16 | O=[N+]([O-])c1ccc(O)c(Nc2ncnc3ccccc23)c1 [4-nitro-2-(4-quinazolinylamino)phenol] | < 4.00
17 | O=C(N/N=C/c1ccc(Br)cc1)c1ccc(Br)o1 [5-bromanyl-N-[(E)-(4-bromophenyl)methylideneamino]furan-2-carboxamide] | < 4.00
18 | OCCN1CCN(C(=S)c2ccc(Cl)c(Cl)c2)CC1 [(3,4-dichlorophenyl)-[4-(2-hydroxyethyl)-1-piperazinyl]methanethione] | < 4.00
19 | CCOc1ccc(C(=S)N2CCN(C)CC2)cc1 [(4-ethoxyphenyl)-(4-methyl-1-piperazinyl)methanethione] | < 4.00
20 | Cc1ccc(C(=S)N2CCN(Cc3ccccc3)CC2)s1 [(5-methyl-2-thiophenyl)-[4-(phenylmethyl)-1-piperazinyl]methanethione] | < 4.00
21 | S=C(c1cn(CCOc2ccccc2)c2ccccc12)N1CCCC1 [MLS-0109562.0001] | < 4.00
22 | COc1cc(Cl)ccc1N=C(S)N(CCCN1CCOCC1)Cc1cn(C)c2ccccc12 [N'-(4-chloro-2-methoxyphenyl)-N-[(1-methyl-1H-indol-3-yl)methyl]-N-(3-morpholin-4-ylpropyl)thiourea] | < 4.00
23 | COc1cccc(-c2cc(C(=O)Nc3nc4ccccc4s3)c3ccccc3n2)c1 [N-(1,3-benzothiazol-2-yl)-2-(3-methoxyphenyl)-4-quinolinecarboxamide] | < 4.00
24 | O=C(N/N=C/c1cccc(Br)c1)c1ccc(N2CCCC2=O)cc1 [N-[(E)-(3-bromophenyl)methylideneamino]-4-(2-oxidanylidenepyrrolidin-1-yl)benzamide] | < 4.00
25 | O=C(COc1ccc(/C=N/NC(=O)c2ccccc2O)cc1)Nc1ccccc1 [N-[(E)-[4-(2-anilino-2-oxoethoxy)phenyl]methylideneamino]-2-hydroxybenzamide] | < 4.00
26 | COc1ccc(CN=Nc2nc(O)c(CC(=O)O)s2)cc1OCc1ccc(Cl)cc1Cl [[2-({3-[(2,4-dichlorobenzyl)oxy]-4-methoxybenzylidene}hydrazono)-4-oxo-1,3-thiazolidin-5-yl]acetic acid] | 4.47

The remaining lines, values ahead:

Row | pIC50 | Structure (SMILES)
27 | < 4.00 | CCc1ccc(OCC(=O)Nc2ccc(-c3nc4ccccc4o3)c(O)c2)cc1 [MLS000109444]
28 | < 4.00 | S=C1N=C2C(=C3SCCS3)CCCC2C(c2ccccc2)N1 (stereo not given) [MLS000516376]
29 | < 4.00 | O=C(N/N=C/c1ccc(OC(=O)c2cccs2)cc1)c1cccc(F)c1 [MLS000576933]
30 | < 4.00 | OCCN1CCN(C(=S)c2ccc(Br)cc2)CC1 [MLS000577024]
31 | < 4.00 | O=C(N/N=C/c1ccc(Cl)c([N+](=O)[O-])c1)c1ccc2c(c1)OCCO2 [MLS000587937]
32 | < 4.00 | COC(=O)Nc1sc2c(c1C(N)=O)CCC(C)C2 (stereo not given) [MLS000683996]
33 | < 4.00 | CC(C)(C)C(=O)Nc1ccc(C(=O)Nc2cccc(Oc3ccc(C(=O)O)c(C(=O)O)c3)c2)cc1 [MLS001181252]
34 | < 4.00 | CCOc1ccc(/C=N/NC(=O)c2cc3c(OC)cccc3[nH]2)cc1 [MLS001216500]
35 | 5.55 | CSc1ccc(CN=Nc2ccc(S(=O)(=O)Nc3ccccc3C(=O)O)cc2[N+](=O)[O-])cc1 [MLS002245633]
36 | < 4.00 | O=C(N/N=C/C1C=CC=CC1=O)c1cccc([N+](=O)[O-])c1 (stereo not given) [MLS002667988]
37 | < 4.00 | O=C(Nc1cccc2c(=O)[nH][nH]c(=O)c12)c1ccc([N+](=O)[O-])cc1 [MLS003171605]
38 | < 4.00 | COc1ccc(OC)c(-n2c(O)c3o[nH]c(-c4ccccc4Cl)c-3c2=O)c1 [SMR000046218]
39 | < 4.00 | CCN1CCN(C(=S)c2ccc(Cl)c(Cl)c2)CC1 [SMR000143195]
40 | < 4.00 | N=C1S/C(=C\c2ccc(O)cc2)C(=O)N1c1ccc(F)cc1 [SMR000298434]
41 | < 4.00 | CCOC(=O)N1CCC(N(CCN(C)C)C(=S)Nc2ccc(Oc3ccccc3)cc2)CC1 [SMR000311544]
42 | < 4.00 | COC(=O)c1ccccc1CSc1nsc(/C=C/N(C)C)c1C#N [SMR000549393]
43 | < 4.00 | Cc1ccc(NC(=O)c2ccc3nc(N4CCOCC4)sc3c2)c(Cl)c1 [SMR000624920]
44 | < 4.00 | Cc1sc2nc(CSC(C)C(=O)Nc3ccc(Cl)cn3)nc(O)c2c1C (stereo not given) [SMR001268769]
45 | < 4.00 | O=C(NN=Cc1ccccc1O)NN=Cc1ccccc1O [SMR001556943]
